Laboratory results: US20220125051A1, “PRE-HARVEST DESICCATION METHOD” (SYNGENTA CROP PROTECTION AG, priority 2019, published 2022)
Several values for one entry are separate records, joined by “and”; a condition that tells them apart may be missing. Equal entries are not always repeated.

Experiments:
Assay type in all cases: in vivo
Brassica napus (BRSNN) = experiment: Pre-harvest desiccation of crop plants; conditions: Table E, evaluated after 7 and 14 days (which not stated), 100=total damage to plant, 0=no damage
Procedure: (§1) Seeds of a variety of test species were sown in standard loam based soil in pots. After cultivation from between 21 and 28 days (post-emergence) under controlled conditions in a glasshouse (at 24/16° C., day/night; 14 hours light; 65% humidity) for warm climate species and (at 20/16° C. day/night; 15 hours light; 65% humidity) for cool climate species.
(§2) The plants were sprayed with an aqueous spray solution derived from dissolving the technical active ingredient formula in a small amount of acetone and a special solvent and emulsifier mixture referred to as IF50 (11.12% Emulsogen EL360 TM+44.44% N-methylpyrrolidone+44.44% Dowanol DPM glycol ether), to create a 50 g/I solution which was then diluted to required concentration using a solution of 1% Empicol ESC70 (Sodium lauryl ether sulphate)+1% ammonium sulphate in water as diluent.
(§3) The delivery of the aqueous spray solution was via a laboratory track sprayer which delivered the aqueous spray composition at a rate of 200 litres per hectare, using a flat fan nozzle (Teejet 11002VS) and an application volume of 200 litre/ha (at 2 bar).
(§4) The test plants were then grown in a glasshouse under controlled conditions (at 24/16° C., day/night; 14 hours light; 65% humidity) for warm climate species and (at 20/16° C. day/night; 15 hours light; 65% humidity) for cool climate species and watered twice daily. After 7 and 14 days the test was evaluated (100=total damage to plant; 0=no damage to plant).
(§5) A value of n/t indicates not tested.
(§6) Glycine Max (GLXMA), Solanum turberosum (SOLTU), Gossypium hirsutum (GOSHI), Brassica napus (BRSNN), Helianthus annus (HELAN)

Glycine Max (GLXMA) = experiment: Pre-harvest desiccation of crop plants; conditions: Table E, evaluated after 7 and 14 days (which not stated), 100=total damage to plant, 0=no damage
Procedure: as §1, §2, §3, §4, §5, §6

[1] = tested on: Gossypium hirsutum (GOSHI); experiment: Pre-harvest desiccation of crop plants; conditions: Table E, evaluated after 7 and 14 days (which not stated), 100=total damage to plant, 0=no damage
Procedure: as §1, §2, §3, §4, §5, §6

[2] = tested on: Solanum turberosum (SOLTU); experiment: Pre-harvest desiccation of crop plants; conditions: Table E, evaluated after 7 and 14 days (which not stated), 100=total damage to plant, 0=no damage
Procedure: as §1, §2, §3, §4, §5, §6

[3] = tested on: Amaranthus palmeri (AMAPA); experiment: Post-emergence efficacy, Method A; conditions: Application Rate 500 g/Ha, evaluated after 13 days, Method A; for pest or weed control at 500 g/ha: Amaranthus palmeri, post-emergence, 312 h, read-out: Control of weed species after post-emergence application, AMAPA (100=total damage to plant; 0=no damage to plant)
Outline: (§7)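 Plants raised 14 days from seed in standard soil in a glasshouse (24/16 °C day/night, 14 h light, 65% humidity) were sprayed with compound dissolved in acetone plus IF50 solvent/emulsifier (50 g/l solution), diluted with 0.25% or 1% Empicol ESC70 + 1% ammonium sulphate. Damage was scored visually after 13 days (0 = none, 100 = total).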

[4] = tested on: Chenopodium album (CHEAL); experiment: Post-emergence efficacy, Method A; conditions: Application Rate 500 g/Ha, evaluated after 13 days, Method A; for pest or weed control at 500 g/ha: Chenopodium album, post-emergence, 312 h, read-out: Control of weed species after post-emergence application, CHEAL (100=total damage to plant; 0=no damage to plant)
Outline: as §7

[5] = tested on: Digitaria sanguinalis (DIGSA); experiment: Post-emergence efficacy, Method A; conditions: Application Rate 500 g/Ha, evaluated after 13 days, Method A; for pest or weed control at 500 g/ha: Digitaria sanguinalis, post-emergence, 312 h, read-out: Control of weed species after post-emergence application, DIGSA (100=total damage to plant; 0=no damage to plant)
Outline: as §7

[6] = tested on: Echinochloa crus-galli (ECHCG); experiment: Post-emergence efficacy, Method A; conditions: Application Rate 500 g/Ha, evaluated after 13 days, Method A; for pest or weed control at 500 g/ha: Echinochloa crus-galli, post-emergence, 312 h, read-out: Control of weed species after post-emergence application, ECHCG (100=total damage to plant; 0=no damage to plant)
Outline: as §7

Eleusine indica (ELEIN) = experiment: Post-emergence efficacy, Method A; conditions: Application Rate 500 g/Ha, evaluated after 13 days, Method A; for pest or weed control at 500 g/ha: Eleusine indica, post-emergence, 312 h, read-out: Control of weed species after post-emergence application, ELEIN (100=total damage to plant; 0=no damage to plant)
Outline: as §7

[7] = tested on: Euphorbia heterophylla (EPHHL); experiment: Post-emergence efficacy, Method A; conditions: Application Rate 500 g/Ha, evaluated after 13 days, Method A; for pest or weed control at 500 g/ha: Euphorbia heterophylla, post-emergence, 312 h, read-out: Control of weed species after post-emergence application, EPHHL (100=total damage to plant; 0=no damage to plant)
Outline: as §7

[8] = tested on: Ipomoea hederacea (IPOHE); experiment: Post-emergence efficacy, Method A; conditions: Application Rate 500 g/Ha, evaluated after 13 days, Method A; for pest or weed control at 500 g/ha: Ipomoea hederacea, post-emergence, 312 h, read-out: Control of weed species after post-emergence application, IPOHE (100=total damage to plant; 0=no damage to plant)
Outline: as §7

Lolium perenne (LOLPE) = experiment: Post-emergence efficacy, Method A; conditions: Application Rate 500 g/Ha, evaluated after 13 days, Method A; for pest or weed control at 500 g/ha: Lolium perenne, post-emergence, 312 h, read-out: Control of weed species after post-emergence application, LOLPE (100=total damage to plant; 0=no damage to plant)
Outline: as §7

Setaria faberi (SETFA) = experiment: Post-emergence efficacy, Method A; conditions: Application Rate 500 g/Ha, evaluated after 13 days, Method A; for pest or weed control at 500 g/ha: Setaria faberi, post-emergence, 312 h, read-out: Control of weed species after post-emergence application, SETFA (100=total damage to plant; 0=no damage to plant)
Outline: as §7

Row | Compound | Post-emergence dessication efficacy, BRSNN (Brassica napus (BRSNN); 150 g/Ha) | Post-emergence dessication efficacy, BRSNN (Brassica napus (BRSNN); 300 g/Ha) | Post-emergence dessication efficacy, BRSNN (Brassica napus (BRSNN); 600 g/Ha) | Post-emergence dessication efficacy, GLXMA (Glycine Max (GLXMA); 150 g/Ha) | Post-emergence dessication efficacy, GLXMA (Glycine Max (GLXMA); 300 g/Ha) | Post-emergence dessication efficacy, GLXMA (Glycine Max (GLXMA); 600 g/Ha) | Post-emergence dessication efficacy, GOSHI ([1]; 600 g/Ha) | Control of weed species after post-emergence application, AMAPA (100=total damage to plant; 0=no damage to plant) [3] | Control of weed species after post-emergence application, CHEAL (100=total damage to plant; 0=no damage to plant) [4] | Control of weed species after post-emergence application, DIGSA (100=total damage to plant; 0=no damage to plant) [5] | Control of weed species after post-emergence application, ECHCG (100=total damage to plant; 0=no damage to plant) [6] | Control of weed species after post-emergence application, ELEIN (100=total damage to plant; 0=no damage to plant) (Eleusine indica (ELEIN)) | Control of weed species after post-emergence application, EPHHL (100=total damage to plant; 0=no damage to plant) [7] | Control of weed species after post-emergence application, IPOHE (100=total damage to plant; 0=no damage to plant) [8] | Control of weed species after post-emergence application, LOLPE (100=total damage to plant; 0=no damage to plant) (Lolium perenne (LOLPE)) | Control of weed species after post-emergence application, SETFA (100=total damage to plant; 0=no damage to plant) (Setaria faberi (SETFA)) | also measured
1 | O=S(=O)([O-])CC[n+]1ccc(-c2ncccn2)cn1 [Compound A1, 2-(4-pyrimidin-2-ylpyridazin-1-ium-1-yl)ethanesulfonate] | 33 | 55 | 70 | 68 | 94 | 98 | 96 |  |  |  |  |  |  |  |  |  | Post-emergence dessication efficacy, GOSHI ([1]; 150 g/Ha): 99; Post-emergence dessication efficacy, GOSHI ([1]; 300 g/Ha): 98; Post-emergence dessication efficacy, SOLTU ([2]; 150 g/Ha): 38; Post-emergence dessication efficacy, SOLTU ([2]; 300 g/Ha): 90; Post-emergence dessication efficacy, SOLTU ([2]; 600 g/Ha): 60
2 | O=S(=O)([O-])CC[n+]1ccc(-c2cccnn2)cn1 [Compound A5, 2-(4-pyridazin-3-ylpyridazin-1-ium-1-yl)ethanesulfonate] | 50 | 72 | 82 | 83 | 93 | 100 | 100 |  |  |  |  |  |  |  |  |  | Post-emergence dessication efficacy, GOSHI ([1]; 150 g/Ha): 82; Post-emergence dessication efficacy, GOSHI ([1]; 300 g/Ha): 98; Post-emergence dessication efficacy, SOLTU ([2]; 150 g/Ha): 27; Post-emergence dessication efficacy, SOLTU ([2]; 300 g/Ha): 53; Post-emergence dessication efficacy, SOLTU ([2]; 600 g/Ha): 60
3 | O=S(=O)([N-]CC[n+]1ccc(-c2ncccn2)cn1)C(F)(F)F [Compound A225] |  |  |  |  |  |  |  |  |  |  |  |  |  |  |  |  | pest or weed control at 500 g/ha [3]: 100%; pest or weed control at 500 g/ha [4]: 90%; pest or weed control at 500 g/ha [5]: 60%; pest or weed control at 500 g/ha [6]: 30%; pest or weed control at 500 g/ha (Eleusine indica (ELEIN)): 90%; pest or weed control at 500 g/ha [7]: 100%; pest or weed control at 500 g/ha [8]: 70%; pest or weed control at 500 g/ha (Lolium perenne (LOLPE)): 30%; pest or weed control at 500 g/ha (Setaria faberi (SETFA)): 30%
4 | Cl.O=C(O)CC[n+]1ccc(-c2cccnn2)cn1.[Cl-] [Compound A234, 3-(4-pyridazin-1-ium-3-ylpyridazin-1-ium-1-yl)propanoic acid dichloride] | 99 | 100 | 100 | 97 and 52 | 97 and 67 | 97 and 63 | 100 and 50 |  |  |  |  |  |  |  |  |  | Post-emergence dessication efficacy, BRSNN (Brassica napus (BRSNN); 75 g/Ha): 77; Post-emergence dessication efficacy, GLXMA (Glycine Max (GLXMA); 75 g/Ha): 25; Post-emergence dessication efficacy, GOSHI ([1]; 75 g/Ha): 33; Post-emergence dessication efficacy, SOLTU ([2]; 75 g/Ha): 7
5 | N[C@H](CC[n+]1ccc(-c2ccncn2)cn1)C(=O)O [Compound A235] |  |  |  |  |  |  |  |  |  |  |  |  |  |  |  |  | pest or weed control at 500 g/ha [3]: 10%; pest or weed control at 500 g/ha [4]: 40%; pest or weed control at 500 g/ha [5]: 40%; pest or weed control at 500 g/ha [6]: 30%; pest or weed control at 500 g/ha (Eleusine indica (ELEIN)): 10%; pest or weed control at 500 g/ha [7]: 20%; pest or weed control at 500 g/ha [8]: 20%; pest or weed control at 500 g/ha (Lolium perenne (LOLPE)): 0%; pest or weed control at 500 g/ha (Setaria faberi (SETFA)): 30%
6 | O=P(O)(O)C[n+]1ccc(-c2ccncn2)cn1 [Compound A236] |  |  |  |  |  |  |  | 90 | 20 | 80 | 50 | 10 | 30 | 40 | 0 | 30 | 
7 | COP(=O)(C[n+]1ccc(-c2ccncn2)cn1)OC.O=S(=O)([O-])C(F)(F)F [Compound A237] |  |  |  |  |  |  |  | 60 | 10 | 50 | 10 | 70 | 0 | 50 | 10 | 20 | 
8 | COP(=O)(C[n+]1ccc(-c2ncccn2)cn1)OC.O=S(=O)([O-])C(F)(F)F [Compound A238, 1-(dimethoxyphosphorylmethyl)-4-pyrimidin-2-yl-pyridazin-1-ium trifluoromethanesulfonate] |  |  |  |  |  |  |  | 50 | 20 | 50 | 40 | 30 | 50 | 40 | 10 | 50 | 
